Measured values as given in patent US20100324058A1 (Obschestvo S Organichennoi Otvetsttvennoctiyou "Bionika", priority 2007, published 2010).

Molecular target: thrombin (Homo sapiens, UniProt P00734)
Assay: Effect of test compounds on thrombin activity: hydrolysis rate of chromogenic (Chromozim TH) or fluorogenic (BOC-Ala-Pro-Arg-AMC) substrate
Assay type: biochemical
Conditions: for inhibition at 0.0025 µM: concentration of compound 2.5 nM; for inhibition at 0.005 µM: concentration of compound 5 nM; for inhibition at 0.025 µM: concentration of compound 25 nM; for inhibition at 0.05 µM: concentration of compound 50 nM; for inhibition at 0.0125 µM: concentration of compound 12.5 nM; for inhibition at 0.125 µM: concentration of compound 125 nM; for inhibition at 0.02 µM: concentration of compound 20 nM; for inhibition at 0.04 µM: concentration of compound 40 nM; for inhibition at 0.1 µM: concentration of compound 100 nM; for inhibition at 0.2 µM: concentration of compound 200 nM; for inhibition at 0.01 µM: concentration of compound 10 nM; for inhibition at 0.00125 µM: concentration of compound 1.25 nM
Excerpt: The effect of the synthesized substances on thrombin activity was studied by measuring the hydrolysis rate of specific low molecular weight substrates with thrombin in an aqueous buffering solution in the absence and presence of these compounds. One of these substrates was chromogenic substrate Chromozim TH (CTH): N-(p-Tosyl)-Gly-Pro-Arg-pNA [Sonder S A, Fenton J W 2nd. Thrombin Specificity with Tripeptide Chromogenic Substrates: Comparison of Human and Bovine Thrombins with and without Fibrinogen Clotting Activities. Clin. Chem., 1986, 32(6):934-937]. Another substrate that was used in a number of experiments was fluorogenic substrate BOC-Ala-Pro-Arg-AMC (S), wherein BOC is butoxycarbonyl residue, and AMC is 7-amino-4-methylcoumaryl [Kawabata S, Miura T, Morita T, Kato H, Fujikawa K, Ivanaga S, Takada K, Kimura T, Sakakibara S. Highly Sensitive peptide-4-methylcoumaryl-7-amide Substrates for Blood-Clotting Proteases and Trypsin. Eur. J. Biochem., 1988, 172(1):17-25].
The holes of a common 96-hole board were filled with a buffer containing 140 mM of NaCl, 20 mM of HEPES, and 0.1% polyethylene glycol (Mw=6,000), at pH=8.0. […] When a chromogenic substrate was used, accumulation of the colored reaction product—para-nitroaniline—was followed on a spectrophotometric Molecular Devices board reader (Thermomax, U.S.), measuring the increase in optical density on the 405 nm wavelength. […] The reaction kinetics was registered on a fluorometric Titertek Fluoroskan board reader (LabSystem, Finland).
The initial reaction rate was measured as the tangent of the kinetic curve inclination angle on a straight section (first 10 to 15 minutes of registration). Reaction rate without an inhibitor was a ssumed to be 100%. The mean arithmetic value of two independent measurements was used as the end result.

[1] = concentration of compound 2.5 mcM
[2] = concentration of compound 0.25 mcM
[3] = concentration of compound 0.5 mcM
[4] = concentration of compound 5 mcM
[5] = concentration of compound 10 mcM
[6] = concentration of compound 25 mcM
[7] = concentration of compound 50 mcM
[8] = concentration of compound 100 mcM
[9] = concentration of compound 250 mcM
[10] = concentration of compound 500 mcM
[11] = concentration of compound 0.1 mcM
[12] = concentration of compound 1 mcM
[13] = concentration of compound 2 mcM
[14] = concentration of compound 20 mcM
[15] = concentration of compound 1.25 mcM

SMILES: Cc1cc(OCC[n+]2ccc(N)cc2)cc(OS(=O)(=O)c2ccc(Cl)cc2)c1 [HC_039s_IOC]
- inhibition at 0.0025 µM: 24%
- inhibition at 0.005 µM: 44%
- inhibition at 0.025 µM: 73%
- inhibition at 0.05 µM: 88%
- Hydrolysis rate inhibition, % [1]: 98%

SMILES: CN(c1ccccc1)S(=O)(=O)c1ccc2c(c1)nc(CC[n+]1ccc(N)cc1)n2C.[Cl-] [HC_027s_IOC]
- Hydrolysis rate inhibition, % [2]: 11%
- Hydrolysis rate inhibition, % [3]: 6%
- Hydrolysis rate inhibition, % [1]: 24%
- Hydrolysis rate inhibition, % [4]: 24%
- Hydrolysis rate inhibition, % [5]: 59%
- Hydrolysis rate inhibition, % [6]: 72%
- Hydrolysis rate inhibition, % [7]: 88%
- Hydrolysis rate inhibition, % [8]: 100%
- Hydrolysis rate inhibition, % [9]: 100%
- Hydrolysis rate inhibition, % [10]: 100%

SMILES: Nc1cc[n+](CCOc2cccc(NS(=O)(=O)c3ccccc3)c2)cc1 [HC_041s_IOC]
- Hydrolysis rate inhibition, % [11]: 56%
- Hydrolysis rate inhibition, % [2]: 62%
- Hydrolysis rate inhibition, % [3]: 75%
- Hydrolysis rate inhibition, % (concentration of compound 1.75 mcM): 88%
- Hydrolysis rate inhibition, % (concentration of compound 3.75 mcM): 90%
- Hydrolysis rate inhibition, % [6]: 95%
- Hydrolysis rate inhibition, % [9]: 99%

SMILES: Cc1cc(OCCCSC(=N)N)cc(OS(=O)(=O)c2ccccc2Cl)c1 [HC-026s-IOC, 3-(3-methyl-5-(2-chlorobenzenesulfonyloxy)phenoxy)propyl-isothiouronium iodide]
- inhibition at 0.005 µM: 47%
- inhibition at 0.0125 µM: 40%
- inhibition at 0.025 µM: 64%
- inhibition at 0.125 µM: 68%

SMILES: Cc1cc(OCCCSC(=N)N)cc(OS(=O)(=O)c2ccccc2)c1.I [HC-018s-IOC, 3-(3-methyl-5-(benzenesulfonyloxy)phenoxy)propyl-isothiouronium iodide]
- inhibition at 0.02 µM: 16%
- inhibition at 0.04 µM: 33%
- inhibition at 0.1 µM: 49%
- inhibition at 0.2 µM: 64%
- Hydrolysis rate inhibition, % [3]: 93%
- Hydrolysis rate inhibition, % [12]: 98%
- Hydrolysis rate inhibition, % [13]: 100%
- Hydrolysis rate inhibition, % [4]: 100%
- Hydrolysis rate inhibition, % [5]: 100%
- Hydrolysis rate inhibition, % [14]: 100%
- Hydrolysis rate inhibition, % [7]: 100%
- Hydrolysis rate inhibition, % [8]: 100%

SMILES: C/N=C(/N)SCCOc1cc(C)cc(OS(=O)(=O)c2ccccc2Cl)c1.I [HC_033s_IOC]
- inhibition at 0.004 µM (concentration of compound 4 nM): 18%
- inhibition at 0.01 µM: 23%
- inhibition at 0.02 µM: 24%
- inhibition at 0.04 µM: 62%
- inhibition at 0.1 µM: 59%
- inhibition at 0.2 µM: 74%
- Hydrolysis rate inhibition, % (concentration of compound 4 mcM): 100%

SMILES: Cc1cc(OCC[n+]2ccc(N)cc2)cc(OS(=O)(=O)c2ccccc2)c1 [HC-019s-IOC, 4-amino-1-(2-(3-methyl-5-(benzene Sulfonyloxy)phenoxy)ethyl)-pyridinium iodide]
- inhibition at 0.0025 µM: 55%
- inhibition at 0.005 µM: 88%
- inhibition at 0.0125 µM: 90%
- inhibition at 0.025 µM: 88%
- inhibition at 0.05 µM: 95%
- inhibition at 0.125 µM: 94%

SMILES: Cc1cc(OCCSC(=N)N)cc(OS(=O)(=O)c2ccccc2)c1.I [HC-020s-IOC, 2-(3-methyl-5-(benzenesulfonyloxy)phenoxy)ethyl-isothioronium iodide]
- inhibition at 0.005 µM: 54%
- inhibition at 0.0125 µM: 46%
- inhibition at 0.025 µM: 59%
- inhibition at 0.05 µM: 68%
- inhibition at 0.125 µM: 81%
- inhibition at 0.25 µM (concentration of compound 250 nM): 94%
- inhibition at 0.5 µM (concentration of compound 500 nM): 96%
- Hydrolysis rate inhibition, % [15]: 98%
- Hydrolysis rate inhibition, % [1]: 99%
- Hydrolysis rate inhibition, % [4]: 99%

SMILES: Cc1cc(OCCC[n+]2ccsc2N)cc(OS(=O)(=O)c2ccccc2F)c1.[I-] [HC_030s_IOC]
- inhibition at 0.02 µM: 5%
- inhibition at 0.05 µM: 18%
- Hydrolysis rate inhibition, % [13]: 72%
- Hydrolysis rate inhibition, % [4]: 88%
- Hydrolysis rate inhibition, % [5]: 93%

SMILES: Cc1cc(OCCCSC(=N)N)cc(OS(=O)(=O)c2ccccc2F)c1.I [HC_031s_IOC]
- inhibition at 0.005 µM: 35%
- inhibition at 0.01 µM: 43%
- inhibition at 0.02 µM: 49%
- inhibition at 0.05 µM: 59%
- inhibition at 0.1 µM: 73%
- Hydrolysis rate inhibition, % [13]: 99%
- Hydrolysis rate inhibition, % [4]: 100%

SMILES: C/N=C(/N)SCCCOc1cc(C)cc(OS(=O)(=O)c2ccccc2Cl)c1.I [HC_032s_IOC]
- inhibition at 0.05 µM: 10%
- inhibition at 0.1 µM: 17%
- Hydrolysis rate inhibition, % [4]: 48%
- Hydrolysis rate inhibition, % [5]: 71%

SMILES: CNc1ccc(S(=O)(=O)N(C)c2ccccc2)cc1NC(=O)CC[n+]1ccc(N)cc1.[Cl-] [HC_028s_IOC]
- Hydrolysis rate inhibition, % [11]: 15%
- Hydrolysis rate inhibition, % [2]: 34%
- Hydrolysis rate inhibition, % [3]: 46%
- Hydrolysis rate inhibition, % [12]: 44%
- Hydrolysis rate inhibition, % [1]: 63%
- Hydrolysis rate inhibition, % [4]: 78%
- Hydrolysis rate inhibition, % [6]: 95%
- Hydrolysis rate inhibition, % [7]: 95%
- Hydrolysis rate inhibition, % [9]: 100%
- Hydrolysis rate inhibition, % [10]: 100%

SMILES: Cc1cc(OCC[n+]2ccc(N)cc2)cc(OS(=O)(=O)c2ccccc2Cl)c1 [HC-025s-IOC, 4-amino-1-(2-(3-methyl-5-(2-chlorobenzenesulfonyloxy)phenoxy)ethyl)-pyridinium iodide]
- inhibition at 0.00125 µM: 69%
- inhibition at 0.0025 µM: 52%
- inhibition at 0.0063 µM (concentration of compound 6.3 nM): 70%
- inhibition at 0.0125 µM: 81%
- inhibition at 0.05 µM: 96%
- inhibition at 0.125 µM: 98%

SMILES: Cc1cc(OCCCn2ccsc2=N)cc(OS(=O)(=O)c2ccccc2)c1
- inhibition at 0.1 µM: 5%
- inhibition at 0.2 µM: 10%
- Hydrolysis rate inhibition, % [3]: 23%
- Hydrolysis rate inhibition, % [13]: 57%
- Hydrolysis rate inhibition, % [4]: 73%
- Hydrolysis rate inhibition, % [14]: 95%
- Hydrolysis rate inhibition, % [7]: 95%
- Hydrolysis rate inhibition, % [8]: 96%
- Hydrolysis rate inhibition, % (concentration of compound 200 mcM): 97%

SMILES: Cc1cc(OCC[n+]2ccc(N)cc2)cc(OS(=O)(=O)c2ccccc2F)c1 [HC_037s_IOC]
- inhibition at 0.0025 µM: 43%
- inhibition at 0.005 µM: 59%
- inhibition at 0.025 µM: 82%
- inhibition at 0.05 µM: 86%
- Hydrolysis rate inhibition, % [1]: 89%

SMILES: Cc1cc(OCCSC(=N)N)cc(OS(=O)(=O)c2ccccc2S(C)(=O)=O)c1 [HC_040s_IOC]
- inhibition at 0.0025 µM: 4%
- inhibition at 0.005 µM: 19%
- inhibition at 0.025 µM: 66%
- inhibition at 0.05 µM: 75%
- Hydrolysis rate inhibition, % [1]: 100%

SMILES: Cc1cc(OCCC[n+]2ccc(N)cc2)cc(OS(=O)(=O)c2ccccc2)c1 [HC-016s-IOC, 4-amino-1-(3-(3-methyl-5-(benzenesulfonyloxy)phenoxy)propyl)-pyridinium iodide]
- inhibition at 250 µM (concentration of compound 0.25 mM): 84%
- inhibition at 500 µM (concentration of compound 0.5 mM): 100%

SMILES: Cc1ccc(S(=O)(=O)Oc2cc(C)cc(OCC[n+]3ccc(N)cc3)c2)cc1 [HC_038s_IOC]
- inhibition at 0.005 µM: 47%
- inhibition at 0.025 µM: 56%
- inhibition at 0.05 µM: 85%
- Hydrolysis rate inhibition, % [1]: 96%

SMILES: Cc1cc(OCCSC(=N)N)cc(OS(=O)(=O)c2ccccc2Cl)c1 [HC_046s_IOC]
- inhibition at 0.00125 µM: 18%
- inhibition at 0.0025 µM: 39%
- inhibition at 0.005 µM: 59%
- inhibition at 0.0125 µM: 77%
- inhibition at 0.025 µM: 92%

SMILES: CNc1ccc(S(=O)(=O)N(C)c2ccccc2)cc1NC(=O)CC[n+]1ccc(N(C)C)cc1.[Cl-] [HC-022s-IOC]
- Hydrolysis rate inhibition, % [2]: 21%
- Hydrolysis rate inhibition, % [3]: 18%
- Hydrolysis rate inhibition, % [4]: 27%
- Hydrolysis rate inhibition, % [6]: 34%
- Hydrolysis rate inhibition, % [7]: 40%
- Hydrolysis rate inhibition, % (concentration of compound 130 mcM): 36%
- Hydrolysis rate inhibition, % [9]: 51%

SMILES: Cc1cc(OCCC[n+]2ccc(N)cc2)cc(OS(=O)(=O)c2ccccc2Cl)c1 [HC-023s-IOC, 4-AMINO-1-(3-(3-METHYL-5-(2-CHLOROBENZENE SULFONYLOXY)PHENOXY)PROPYL)-PYRIDINIUM IODIDE]
- Hydrolysis rate inhibition, % (concentration of compound 0.7 mcM): 13%
- Hydrolysis rate inhibition, % (concentration of compound 1.4 mcM): 34%
- Hydrolysis rate inhibition, % (concentration of compound 3.4 mcM): 50%
- Hydrolysis rate inhibition, % (concentration of compound 34 mcM): 86%
- Hydrolysis rate inhibition, % (concentration of compound 68 mcM): 99%
- Hydrolysis rate inhibition, % [9]: 100%

SMILES: Cc1cc(OCC[n+]2ccsc2N)cc(OS(=O)(=O)c2ccccc2Cl)c1.[I-] [HC_045s_IOC]
- Hydrolysis rate inhibition, % (concentration of compound 0.125 mcM): 10%
- Hydrolysis rate inhibition, % [2]: 18%
- Hydrolysis rate inhibition, % [3]: 42%
- Hydrolysis rate inhibition, % [15]: 66%
- Hydrolysis rate inhibition, % [1]: 87%
